Test results as given in patent publication US20240092846A1, “ENGINEERED CYCLOTIDES WITH POTENT BROAD ANTIMICROBIAL ACTIVITY” (priority 2022, published 2024).
≈ marks a conversion by molar mass, not a printed value. Where “and” joins values, the source holds several entries; their conditions need not be identical. Identical values can stand only once. Entries after “also recorded” stand apart in the source; their conditions may differ. Like-named read-outs stand apart in the source and are kept apart here.

Experiments:
[1] = Maximum tolerated dose (MTD) toxicology study
From the text: Colistin was used as a control antibiotic.[28] […] For this purpose, Applicant employed a P. aeruginosa bacterial peritonitis model.[29] This animal model is a well-established acute infection model and is commonly utilized as a common preclinical screening method for new antibiotics.[30] Peritonitis in Balb/c mice (n=10) was established by intraperitoneal injection of 1.5×10^7 colony forming units (CFU) per mouse of P. aeruginosa (Schroeter) Migula (ATCC 27853).
Maximum tolerated dose (MTD) toxicology Studies. The MTD was determined using two different endpoints: weight loss and clinical scoring. Clinical scores were evaluated through activity, appearance and body condition, similar to previously published literature (42). […] Any dose escalation that leads to moderate toxicity (clinical score of >2) was ceased and the dose prior served as the MTD. Mice were monitored every hour for 4 h after injection on the first day. After 24 h, mice were monitored twice daily for another two days until weight and clinical scores were returned to normal. Mice that met the criteria for moribund included a >20% weight loss and clinical score of >3 and were euthanized.

[2] = in vitro; conditions: 37° C., LC-MS/MS
Method: This was accomplished by incubating the corresponding peptides in human serum at 37° C. The quantitative analysis of undigested polypeptides was performed using liquid chromatography coupled with tandem mass spectrometry (LC-MS/MS). MCoTI-cyclotides present a very rigid structure,[24] which makes them extremely stable to proteolytic degradation.
Human serum stability. […]. Peptides were dissolved in water at 10 mg/mL concentration. 150 μg of peptides (15 μL) were mixed with 500 μL of human serum and incubated at 37° C. Samples (30 μL) were taken at various time intervals (0-120 h) and serum proteins were precipitated using 180 μL of acetonitrile containing 0.1% TFA. After centrifugation the pellet was dissolved in 8 M GdmCl and the supernatant was lyophilized and re-dissolved in 5% acetonitrile in water containing 0.1% formic acid. Both the supernatant and solubilized pellet fractions were analyzed by HPLC and LC-MS/MS. Each experiment was done in triplicate.

[3] = test system: clinical isolates of methicillin-resistant S. aureus (MRSA)
Method: (§1) Broad-spectrum antimicrobial activity was evaluated using the broth microdilution assays against two different pathogens from four different species of bacteria (P. aeruginosa, S. aureus, K. pneumoniae, and E. coli) to determine if the cyclotides retained its potent activity. Broth microdilution assays were utilized to determine the minimum inhibitory concentrations (MICs) of our cyclotides according to the CLSI (formerly NCCLS) guidelines modifications as described below (40). The assay utilized cation-adjusted Mueller-Hinton broth (CAMHB) (Becton, Dickinson and Company, Franklin Lakes, NJ) which was prepared according to the manufacturer's instructions. Cyclotide solutions were prepared as 10× solutions in 0.01% acetic acid. Cyclotide were serially diluted two-fold at concentrations ranging from 25-0.05 μM that contained CAMHB and 0.04% bovine serum albumin (BSA) in polypropylene microtiter plates (Corning, Corning, NY). All bacteria were incubated overnight at 37° C. at 200 rpm in CAMHB and bacterial inoculum was adjusted with additional CAMHB to 0.5 McFarland standard through spectrophotometry at 600 nm. […] Study strains included a total of 20 P. aeruginosa and 20 methicillin resistant S. aureus strains from patients with cystic fibrosis at the Keck Medical Center of the University of Southern California. […] Colistin sulphate (Sigma-Aldrich, St Louis, MO) was used as a reference antibiotic for P. aeruginosa and E. coli, while vancomycin hydrochloride and meropenem trihydrate were used as reference antibiotics for S. aureus and K. pneumoniae.

[4] = test system: E. coli; conditions: CAMHB
Method: as §1

[5] = test system: clinical isolates of P. aeruginosa
Method: as §1

[6] = test system: human HEK293T and A549 epithelial cells
Method: Cytotoxicity Assay. Cellular toxicities against human HEK293T and A549 epithelial cells were evaluated using Resazurin (Alamarblue™, Thermo Fisher Scientific, Waltham, MA). HEK293T cells were grown in minimum essential media (MEM), while A549 cells were grown in Dulbecco's […] (DMEM) supplemented with 10% fetal bovine serum (FBS) and maintained at 37° C. with 5% CO2. For each cell line, 10^4 cells were added to each well in a 96-well polystyrene plate and incubated for 16 h. Peptides were serially diluted two-fold at concentrations ranging from 100-0.2 μM in medium containing 10% FBS in polystyrene 96 well microtiter plates (Corning) for 16 h. After the incubation period, the cells were washed with PBS and treated with 200 μL/well DMEM media supplemented with 10% FBS containing the peptides at the indicated concentration for 22 h at 37° C. in 5% CO2 and then the medium was replaced with fresh growth medium containing resazurin and incubated for another 2 hours. Cell viability was quantified spectrophotometrically and cells incubated in the absence of peptides and containing 2% Triton X-100 (Sigma) served as controls.

Question: What does the source list for `CC[C@H](C)[C@@H]1NC(=O)[C@@H]2CSSC[C@@H]3NC(=O)[C@H](C(C)C)NC(=O)CNC(=O)CNC(=O)[C@H](CCCNC(=N)N)NC(=O)[C@H](CCCNC(=N)N)NC(=O)CNC(=O)[C@H](C(C)C)NC(=O)[C@@H]4CSSC[C@H](NC(=O)[C@H](CC(C)C)NC(=O)[C@H](CCCNC(=N)N)NC(=O)CNC(=O)CNC(=O)[C@H](CO)NC(=O)CNC(=O)[C@H](CO)NC(=O)CNC(=O)[C@@H]5CSSC[C@H](NC(=O)[C@H](CC(=O)O)NC(=O)[C@H](CO)NC(=O)[C@H](CC(=O)O)NC(=O)[C@H](CCCNC(=N)N)NC(=O)[C@H](CCCNC(=N)N)NC(=O)[C@H](CSSC[C@H](NC1=O)C(=O)N[C@@H](CCCNC(=N)N)C(=O)NCC(=O)N[C@@H](CC(N)=O)C(=O)NCC(=O)N[C@@H](Cc1ccc(O)cc1)C(=O)N5)NC(=O)[C@H](CCCNC(=N)N)NC(=O)[C@H](CCC(N)=O)NC(=O)[C@H](CC(C)C)NC(=O)[C@H]([C@@H](C)CC)NC(=O)[C@H](CCCCN)NC(=O)[C@@H]1CCCN1C3=O)C(=O)N1CCC[C@H]1C(=O)NCC(=O)N[C@@H](C)C(=O)N2)C(=O)N[C@@H](Cc1ccc(O)cc1)C(=O)N[C@H]1CSSC[C@H](NC(=O)[C@H](Cc2ccccc2)NC(=O)[C@H](CCCNC(=N)N)NC(=O)[C@H](CCCNC(=N)N)NC(=O)[C@H](CCCNC(=N)N)NC1=O)C(=O)N[C@@H](C(C)C)C(=O)N4` [MCo-PG2]?
Answer: MTD at 3 days ([1]; Balb/c, mouse, in vivo, ip): 25 mg/kg; times less toxic than PG-1 in mice ([1]; in vivo toxicity studies): approximately 4; t1/2 in human serum [2]: ~60 h; half-life at 0.291 mg/mL ([2]; human, human serum, t1/2 in human serum): 60 ± 6 h; S. aureus MIC50 ([3]; MRSA clinical isolates, n=20): 6.25 µM and 6.3 µM; S. aureus MIC90 ([3]; MRSA clinical isolates, n=20): 12.5 µM; S. aureus (SA) MIC ([3]; SA strain 766): 6.25 µM; S. aureus (SA) MIC ([3]; SA strain 4084-1): 12.5 µM; S. aureus (SA) MIC ([3]; SA strain 4094): 12.5 µM; S. aureus (SA) MIC ([3]; SA strain 6151-1): 12.5 µM; S. aureus (SA) MIC ([3]; SA strain 10337-1): 6.25 µM; S. aureus (SA) MIC ([3]; SA strain 10630-1): 6.25 µM; S. aureus (SA) MIC ([3]; SA strain 20021-1): 6.25 µM; S. aureus (SA) MIC ([3]; SA strain 20457-1): 12.5 µM; S. aureus (SA) MIC ([3]; SA strain 28283): 6.25 µM; S. aureus (SA) MIC ([3]; SA strain 28310): 6.25 µM; S. aureus (SA) MIC ([3]; SA strain 28355): 6.25 µM; S. aureus (SA) MIC ([3]; SA strain 30138-2): 3.125 µM; S. aureus (SA) MIC ([3]; SA strain 30493-1): 6.25 µM; S. aureus (SA) MIC ([3]; SA strain 32120-1): 6.25 µM; S. aureus (SA) MIC ([3]; SA strain 38878-2): 3.125 µM; S. aureus (SA) MIC ([3]; SA strain 87066): 12.5 µM; S. aureus (SA) MIC ([3]; SA strain 87112): 12.5 µM; S. aureus (SA) MIC ([3]; SA strain 87180): 6.25 µM; S. aureus (SA) MIC ([3]; SA strain 88,531): 12.5 µM; S. aureus (SA) MIC ([3]; SA strain 902674): 12.5 µM; MIC ([4]; E. coli DS377): 0.8 µM (≈ 4.4 µg/mL); MIC ([4]; E. coli K12): 0.8 µM (≈ 4.4 µg/mL); P. aeruginosa (PA) MIC ([5]; PA strain 95302): 1.57 µM; P. aeruginosa (PA) MIC ([5]; PA strain 119133): 3.125 µM; P. aeruginosa (PA) MIC ([5]; PA strain 167482): 0.4 µM; P. aeruginosa (PA) MIC ([5]; PA strain 200174): 0.4 µM; P. aeruginosa (PA) MIC ([5]; PA strain 219686): 3.125 µM; P. aeruginosa (PA) MIC ([5]; PA strain 254831): 1.5 µM; P. aeruginosa (PA) MIC ([5]; PA strain 262309): 1.5 µM; P. aeruginosa (PA) MIC ([5]; PA strain 298473): 0.78 µM; P. aeruginosa (PA) MIC ([5]; PA strain 466035): 0.4 µM; P. aeruginosa (PA) MIC ([5]; PA strain 486442): 0.78 µM; P. aeruginosa (PA) MIC ([5]; PA strain 618154): 0.78 µM; P. aeruginosa (PA) MIC ([5]; PA strain 678449): 3.125 µM; P. aeruginosa (PA) MIC ([5]; PA strain 774248): 12.5 µM; P. aeruginosa (PA) MIC ([5]; PA strain 815159): 0.78 µM; P. aeruginosa (PA) MIC ([5]; PA strain 844265): 0.78 µM; P. aeruginosa (PA) MIC ([5]; PA strain 857950): 6.25 µM; P. aeruginosa (PA) MIC ([5]; PA strain 864684): 3.125 µM; P. aeruginosa (PA) MIC ([5]; PA strain 894496): 0.78 µM; P. aeruginosa (PA) MIC ([5]; PA strain 894925): 3.125 µM; P. aeruginosa (PA) MIC ([5]; PA strain 900719): 3.125 µM; cytotoxicity relative to PG-1 [6]: about three times less toxic than PG-1; also recorded: about three times less cytotoxic than PG-1
